Measured values taken from BindingDB's records for doi:10.1007/s00044-011-9583-7 (n/a, 2012).

Assay: Inhibition of rat intestinal alpha-glucosidase using para-nitrophenyl-alpha-D-glucopyranoside as substrate incubated for 5 min prior to substrate addition measured after 5 min by spectrophotometric analysis

`O=C(/C=C/c1ccccc1)c1cc2ccoc2cc1O` and `O=C(/C=C/c1ccc(O)c(O)c1)c1cc2ccoc2cc1O` are within 1.5-fold of each other in IC50: 14.5 µM for the first, 18.9 µM for the second.

`O=C(/C=C/c1ccc(O)c(O)c1)c1ccc2occc2c1O` and `O=C(/C=C/c1ccc(O)cc1)c1ccc2occc2c1O` are within 1.5-fold of each other in IC50: 15.2 µM for the first, 10.9 µM for the second.

`COc1cc(OC)c(OC)cc1/C=C/C(=O)c1cc2ccoc2cc1O` and `COc1ccc(/C=C/C(=O)c2cc3ccoc3cc2O)cc1OC` are within 1.5-fold of each other in IC50: 13.4 µM for the first, 10.8 µM for the second.

Compared with `COc1ccc(/C=C/C(=O)c2ccc3occc3c2O)c(OC)c1OC`, `COc1ccc(/C=C/C(=O)c2ccc3occc3c2O)cc1OC` is 3.5-fold lower in IC50: 17.3 µM for the first, 5 µM for the second. The second is the more potent here.

`COc1ccc(/C=C/C(=O)c2ccc3occc3c2O)cc1` showed an IC50 of 9.2 µM.
